Reference: the METLIN SMRT retention time set (Domingo-Almenara et al. 2019)

Experiment: gradient 5% acetonitrile 3 min, to 50% in 2 min, to 85% in 15 min, held 3 min, 100 µL/min
Details: column: Zorbax Extend-C18 2.1 x 50 mm; eluents: water / acetonitrile, 0.1% formic acid
Outline: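 Each retention time is based on an adduct peak selected computationally and verified by manual inspection. Measurements used HPLC–quadrupole time-of-flight mass spectrometry in positive and negative ionization mode on mixtures of ~100 pure standards. Chromatography ran on a Zorbax Extend-C18 column (2.1 × 50 mm, 1.8 μm) at 100 μL/min with water and acetonitrile, each containing 0.1% formic acid, and dead and dwell volumes of 40 μL and 900 μL.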

RP-LC retention time [s]	Compound
612	CN(C)c1ccc(CNC(=O)Cn2nc(C(=O)N3CCCC3)c3ccccc32)cc1
788	O=C(NC1CC1)c1nc(C(=O)N2CCN(c3ccc(F)cc3)CC2)cs1
733	COc1cccc(CNC(=O)N2CCCC2c2c(C)noc2C)c1 (stereo not drawn)
682	Cc1c(NS(C)(=O)=O)cccc1-c1nc2cccnc2s1
922	Cc1cccc(OCC(=O)c2ccc3c(c2)N(C(C)C(=O)N2CCCC2)C(=O)CO3)c1C (stereo not drawn)
737	Cc1cc(C)c(S(=O)(=O)Nc2cc(-c3cn4ccccc4n3)ccc2C)cc1C
1050	CCOC(=O)Cn1c(=O)c2c(nc3n2CC(C)CN3c2cc(C)cc(C)c2)n(C)c1=O (stereo not drawn)
745	Cc1ccc(CNC(=O)CCc2c(C)nn(-c3cc(N4CCCC4)ncn3)c2C)o1
1200	CCOC(=O)c1ccccc1NC(=O)Cn1cnc2c(sc3nc(-c4ccccc4)ccc32)c1=O
638	Cc1nc(C)c(C(=O)N2CCCCCNC(=O)[C@@H]3CCC[C@@H]32)s1
842	CN(C)S(=O)(=O)c1ccc2c(c1)N(CC(=O)NCCc1ccco1)C(=O)C1CCCCN21 (stereo not drawn)
826	COCCCNC(=O)C1CCN(C(=O)c2cc3oc(C)cc3n2Cc2c(F)cccc2Cl)CC1
661	Cn1cc(-c2ccc3nnc(Sc4ccc5ncccc5c4)n3n2)cn1
882	CCOc1ccc(N2CC(c3nc(-c4ccc(OC)c(OC)c4)no3)CC2=O)cc1 (stereo not drawn)
658	COc1ccc(CC(=O)N2CCC(n3cnnc3C3CC3)CC2)cc1Cl
1030	COc1ccc(-c2nc(-c3cccc(-c4ccnn4C)c3)no2)c(OC)c1
837	Cc1ncc(Cl)cc1NCc1ccc(C(=O)N[C@@H](CC2CCCC2)C(=O)NC2CC2)s1
586	CCc1cc(N2CCN(C(=O)c3ccc(N(C)C)cc3)CC2)nc2nncn12
904	Cc1ccc(F)c(NC(=O)c2cnc3c(c2)c(=O)n(C)c(=O)n3-c2ccccc2)c1
820	CCOC(=O)c1c(C)[nH]c(C(=O)N2CCC(CC(=O)NCc3cccc(C)c3)CC2)c1C
877	COc1cccc(C(=O)N2CCN(c3nc4ccccc4n(C)c3=O)CC2)c1
714	N#Cc1ccc(S(=O)(=O)N2CCCOCCNC(=O)[C@@H]3CCC[C@@H]32)cc1

RP-LC retention time [s]	Compound
594	CN(CCc1noc(C2CN(Cc3c(F)cccc3Cl)C2)n1)S(C)(=O)=O
990	COC(=O)c1ccc(NC(=O)Cn2c(=O)cc(-c3nc(C(C)C)no3)c3ccccc32)cc1
917	O=C(Nc1cnn(-c2ncc(N3CCCC3)cn2)c1)c1cccc(C(F)(F)F)c1
736	COc1ccccc1CNC(=O)C1CCCN(C(=O)C2Sc3ccccc3NC2=O)C1 (stereo not drawn)
586	CN(C)c1ccc(CNC(=O)Cn2cnc3nc4c(cc3c2=O)CCCC4)cc1
1140	COCCCn1c(=O)c2ccccc2n(Cc2nc(-c3ccccc3Cl)no2)c1=O
807	COc1cccc(-c2noc(-c3nn(-c4cccc(F)c4)ccc3=O)n2)c1OC
728	CCCc1nnc(-c2cccnc2N2CCN(C(=O)c3ccoc3)CC2)o1
1130	COc1cc(OC)cc(-c2noc(-c3nnn(Cc4nc(-c5ccccc5OC)oc4C)c3C)n2)c1
608	CC(C)C(=O)N1CCC2(C1)c1nc[nH]c1CCN2CC1CCCCC1 (stereo not drawn)
822	O=C(NCc1ccc(F)cc1Cl)C1CCN(C(=O)c2cc3ccsc3[nH]2)CC1
984	COc1cc(NC(=O)C2CCN(c3nccnc3Sc3ccccc3)CC2)cc(OC)c1OC
884	Cc1cc(C(=O)Nc2c(F)cc(F)cc2Br)n(-c2ccccc2)n1
576	COCCCNC(=O)Cc1cn(C)c2ncccc12
591	CCC(=O)NCCc1csc(C2CCCN(C(=O)CC)C2)n1 (stereo not drawn)
859	COc1ccc(N2C=C(C(=O)N3CCCCC3)S(=O)(=O)c3ccccc32)cc1
558	Cc1c(C(=O)NCCCN2CCOCC2)sc2ncnc(N3CCN(c4ccccn4)CC3)c12
793	CC(C)(Oc1ccc(Cl)cc1)C(=O)Nc1nnc(C2CC(=O)N(c3ccccc3)C2)o1 (stereo not drawn)
1120	O=C(NCc1ccc2c(c1)OCO2)c1c(O)c2cccnc2n(-c2ccccc2)c1=O
1030	Cc1cccc(-c2noc(Cn3c(=O)n(-c4cccc(F)c4)c(=O)c4sccc43)n2)c1
822	CCNC(=O)N1CCc2c([nH]c3ccc(Cl)cc23)C12C(=O)N(C)c1ccccc12 (stereo not drawn)
624	CCN(CC)CCNC(=O)Cn1nc(-c2ccc(Cl)cc2)ccc1=O

RP-LC retention time [s]	Compound
808	COc1ccc(NC(=O)N2CCC3(C2)C(=O)N(C)c2ccccc23)cc1OC (stereo not drawn)
936	CCOC(=O)c1noc2nc(C)nc(Nc3ccc(C)cc3)c12
814	Cc1cccc(CCNC(=O)c2cc3n(n2)CC(C)(C(=O)NCc2ccccc2)N(C)C3=O)c1 (stereo not drawn)
646	Nc1nnc(SCc2nnc(-c3cccc(F)c3)o2)s1
577	CCOC(=O)c1[nH]c(C)c(CCC(=O)N2CCC(C(=O)NCCN3CCN(CC)CC3)CC2)c1C
588	CN(C)c1ncncc1N1CCC(C(=O)NCc2ccco2)CC1
639	O=C(c1ccco1)N1CCCn2cc(-c3ccccc3F)nc21
663	CCc1ccc(-c2nc(-c3ccc4c(c3)nnn4CCN3CCOCC3)no2)cc1
751	O=C(NCc1ccc(F)cc1)N1CCC(c2noc(C3CC3)n2)C1 (stereo not drawn)
734	COc1ccc(N2CCN(c3nccc4ccc(C(=O)NC5CCCC5)cc34)CC2)cc1
627	O=C(Nc1ccccc1Cl)N1CC(F)(F)C[C@H]1CN1CCCC1
1000	O=C(c1nccc2ccccc12)N1CCc2cc(-c3ccno3)ccc21
999	Cc1cccc(S(=O)(=O)N2CCc3c(c(-c4nnc(-c5ccccc5F)o4)nn3C)C2)c1
953	Cc1noc(-c2nc(Cc3ccc(F)cc3)no2)n1
821	Nc1nc(N2CCN(c3ccccc3F)CC2)ncc1C(=O)Nc1ccccc1
1160	O=C(NCc1ccccc1)c1c(O)c2cccnc2n(-c2ccccc2)c1=O
960	O=C(NCCc1ccccc1)C(=O)NCC1COc2ccccc2O1 (stereo not drawn)
869	O=C(c1ccc(F)cc1)N1CCN(c2ccc(=O)n(-c3cccc(Cl)c3)n2)CC1
761	CN1c2ccccc2C(=O)NC12CCN(C(=O)Nc1ccccc1Cl)CC2
878	c1ccc(CNc2nnc(-c3nc(C4CC4)no3)c3ccccc23)cc1
863	CCN1c2cc(Cl)ccc2C(=O)NC12CCN(C(=O)NCCc1ccccc1)CC2
837	O=C(Cc1ccccc1Br)N1CCN(c2cc(-c3cccs3)[nH]n2)CC1

RP-LC retention time [s]	Compound
842	CCN1C(=O)COc2ccc(-c3noc(CNS(=O)(=O)c4ccccc4)n3)cc21
745	COc1ccc(N2CCN(c3nc(C)cc(C)n3)CC2)cc1
704	Cc1nn(CCCC(=O)NCc2ccc3c(c2)OCO3)c(=O)c2nn(-c3ccccc3)c(C)c12
819	CCc1ccc(CN2C(=O)c3ccccc3C2C(=O)NCCCOC)cc1 (stereo not drawn)
947	Cc1ccnc(Nc2nc(-c3ccc(Cl)cc3)cs2)c1
615	O=C(CN1C(=O)C2CCCCN2c2ccc(C(=O)N3CCCCC3)cc21)NCc1cccnc1 (stereo not drawn)
1040	Cc1ccc(CNC(=O)C2(C)CCCN(C(=O)Nc3cccc(Cl)c3)C2)cc1 (stereo not drawn)
1050	COc1cccc(-c2nc(C3CC(=O)N(c4ccc(Cl)cc4)C3)no2)c1 (stereo not drawn)
687	CCC(=O)N1CCc2cc(N3CC(C(=O)NCC(C)C)CC3=O)ccc21 (stereo not drawn)
716	Cc1csc(-c2ccc(N3CCN(C(=O)c4ccoc4)CC3)nc2)n1
903	CS(=O)(=O)N1CCC(C(=O)Nc2ccc(F)cc2)Oc2ccc(Cl)cc21 (stereo not drawn)
718	CCNc1nc(NCC)nc(-n2cnc(SC)n2)n1
609	Cc1ccc(Nc2nc(C(=O)NCc3cccnc3)nc3ccccc23)cc1
790	COc1ccc(CCNC(=O)C2=C3CCCN3c3ccc(F)cc3S2(=O)=O)cc1OC
640	CCc1cc2c(N3CCCC(C(=O)N(C)C)C3)nccc2s1 (stereo not drawn)
737	O=C(Cn1c(=O)cc(C(=O)N2CCCC2)c2ccccc21)Nc1cc(F)ccc1F
627	O=C(NCc1ccc2c(c1)OCO2)C(=O)NCC1(CO)CC1
975	O=C(NCc1ccc(-c2nc(-c3ccc(F)cc3)no2)s1)C1CCC1
990	Cc1nc(OCC(=O)NC2CCCCC2)c2c(-c3cccc(F)c3)noc2n1
750	Cc1c(Cl)cccc1NC(=O)N(C)CC1CCOCC1
777	COc1ccc(NC(=O)C2CCN(S(=O)(=O)c3ccc4c(c3)NC(=O)CO4)CC2)cc1Cl
555	CC(C)Cn1c(=O)c(N2CCN(C(=O)c3ccco3)CC2)nc2ccncc21
